≈ marks a conversion by molar mass, not a printed value. Like-named read-outs stand apart in the source and are kept apart here.

The conditions of data set [1]: Haim et al. 1986; cited from earlier work.
Data set [2] has as its system variety of cancers including small cell lung cancer, non-lymphocytic leukemia and non-seminomatous testicular cancer. To be noted: clinical, background statement; cited from earlier work.
The test system of the next data set is P388 murine leukemia. The experiment in a line: Antitumor activity against murine P388 leukemia in CDF1 mice. The data set is classed as in vivo. The method, then:
Female CDF1 mice were implanted intraperitoneally with a tumor inoculum of 10^6 ascites cells of P388 murine leukemia and treated with various doses of the compound of Example 4; four mice were used for each dose level and ten were used as saline-treated control. The compound was administered by intraperitoneal injection in two injections on day 1 and day 5. Antitumor activity was expressed as %T/C which is the ratio of the median survival time (MST) of the drug-treated group to the MST of the saline-treated control group. A compound showing a %T/C of 125 or greater is generally considered to have significant antitumor activity in the P388 test. The experiment lasted 31 days at the end of which time the number of survivors was noted.

Another data set concerns B16-F10. The experiment in a line: In vitro cytotoxicity assay, B16-F10 murine melanoma. It is filed as cell-based. To be noted: dissolved in DMSO, two unlabelled lines of values. The method, then: (§1) The in vitro cytotoxicity assay involves growing various mammalian tumor cells, including human tumor cells, on Microtiter plates employing established tissue culture methods. The concentration of each compound required to inhibit cell growth by 50% (IC50) is then determined by a four-fold serial dilution technique. The validity of the method has been supported by a report published in the "Proceedings of the American Association for Cancer Research", 1984, 25: 1891 (Abst. No. 328). Tumor cells of the following type were employed: B16-F10 murine melanoma, Moser human colon, SW900 human lung resistant to teniposide (VM) and etoposide (VP) and three human colon tumor cell lines, i.e. HCT-116, HCT-VM and HCT-VP, the latter two being resistant to teniposide (VM) and etoposide (VP), respectively. IC50 values less than […] are a positive indicator of antitumor activity. Table I presents IC50 values against the above-mentioned cell lines.

In the next data set the test system is HCT/VP35. Nature of the data set: In vitro cytotoxicity assay, HCT/VP35 human colon, etoposide resistant. It is filed as cell-based. To be noted: dissolved in DMSO, two unlabelled lines of values. The method, then: as §1
In a further data set the test system is MOSER. The experiment in a line: In vitro cytotoxicity assay, Moser human colon. It is filed as cell-based. To be noted: dissolved in DMSO, two unlabelled lines of values. As for the experimental part:
as §1

`COc1cc([C@@H]2c3cc4c(cc3[C@@H](O[C@@H]3O[C@@H]5CO[C@@H](C)O[C@H]5[C@H](O)[C@H]3O)[C@H]3COC(=O)[C@H]23)OCO4)cc(OC)c1O` [Etoposide]: the “metabolites formed on peroxidative activation” value in data set [1] is recorded as “formation of two metabolites, one of which has been identified as the corresponding orthoquinone III”. In addition, the “activity in the treatment of cancers” value in data set [2] was “active in the treatment of a variety of cancers”.
`COc1cc(OC)cc([C@@H]2c3cc4c(cc3[C@@H](O[C@@H]3O[C@@H]5CO[C@@H](C)O[C@H]5[C@H](O)[C@H]3O)[C@H]3COC(=O)[C@H]23)OCO4)c1` [Example 4, 4'-Desmethoxyetoposide]: in the data set with P388 murine leukemia (150 mg/kg/inj., i.p., days 1 and 5, dose with maximum effect, saline control 10.0 days), the “MST (median survival time)” value is reported as 17.5 days. Moreover, the “Day 5 No. mice alive/total” value in the data set with P388 murine leukemia (150 mg/kg/inj., i.p., day 5) was 4/4. For the same compound, the “mice alive at day 31” value in the data set with P388 murine leukemia (day 31, test or control group) is “no mice were alive”. Moreover, the “% T/C (MST treated / MST control)” value in the data set with P388 murine leukemia (maximum %T/C, at 150 mg/kg/inj., i.p., days 1 and 5, 125 or greater is significant) is recorded as 175%. The IC50 in the data set with B16-F10 (B16-F10) was 27 µg/mL (≈ 47.2 µM); in the data set on B16-F10 (Mus musculus, B16-F10, B16-F10, read-out: IC50), 23 µg/mL (≈ 40.2 µM); in the data set on HCT/VP35 (HCT/VP35, resistant to etoposide), 3.5 µg/mL (≈ 6.11 µM); in the data set on HCT/VP35 (Homo sapiens, HCT/VP35, HCT/VP35, resistant to etoposide, read-out: IC50), 3.3 µg/mL (≈ 5.76 µM); in the data set with MOSER (Homo sapiens, read-out: IC50) it was 60 µg/mL (≈ 105 µM); in the data set with MOSER it was 31 µg/mL (≈ 54.1 µM).
As for `COc1cc([C@@H]2c3cc4c(cc3[C@@H](O[C@@H]3O[C@@H]5CO[C@@H](c6cccs6)O[C@H]5[C@H](O)[C@H]3O)[C@H]3COC(=O)[C@H]23)OCO4)cc(OC)c1O` [Teniposide], in data set [1], the “metabolites formed on peroxidative activation” value is listed as “formation of two metabolites, one of which has been identified as the corresponding orthoquinone III”. Also, in data set [2], the “activity in the treatment of cancers” value is listed as “active in the treatment of a variety of cancers”.
